Test results reported in the NIST ThermoML archive (doi:10.1021/acs.jced.5b00893).
Numbers after ± are expanded uncertainties.

Details: 293.15 K; 101.33 kPa; Liquid; Vibrating tube method

mass density	SMILES
1058 ± 2 kg/m3	CN1CCN(C)C1=O [1,3-dimethyl-2-imidazolidinone]
1065 ± 2 kg/m3	CN1CCCN(C)C1=O [1,3-dimethyl-3,4,5,6-tetrahydro-2(1H)-pyrimidinone]
982 ± 2 kg/m3	CCCCOC(=O)C(C)O (centres undefined) [butyl 2-hydroxypropanoate]

SMILES	mass density
O=C1CCCO1 [γ-butyrolactone]	1129 ± 2 kg/m3
